Reference: patent publication US9951055B2, “Thiazole-based inhibitors of scavenger receptor BI” (THE BROAD INSTITUTE, INC., priority 2012, dated 2018)
“Also recorded” adds a separate entry of the source. Structures can show the parent of a compound that is named as a salt. Where two headings read alike, the source gives them in different places. Values belong to the compound of their own block, whether it stands above or below them.

How the values were obtained:
murine SR-BI = molecular target: T1, murine SR-BI (Mus musculus, UniProt Q61009); assay: DiI-HDL uptake assay (primary assay); assay type: cell-based
T1 construct: expressed in transfected cells; host or cells: ldlA[mSR-BI]; (CHO ldlA7 derivative lacking the LDL receptor)
T1 sequence (Q61009 1-509): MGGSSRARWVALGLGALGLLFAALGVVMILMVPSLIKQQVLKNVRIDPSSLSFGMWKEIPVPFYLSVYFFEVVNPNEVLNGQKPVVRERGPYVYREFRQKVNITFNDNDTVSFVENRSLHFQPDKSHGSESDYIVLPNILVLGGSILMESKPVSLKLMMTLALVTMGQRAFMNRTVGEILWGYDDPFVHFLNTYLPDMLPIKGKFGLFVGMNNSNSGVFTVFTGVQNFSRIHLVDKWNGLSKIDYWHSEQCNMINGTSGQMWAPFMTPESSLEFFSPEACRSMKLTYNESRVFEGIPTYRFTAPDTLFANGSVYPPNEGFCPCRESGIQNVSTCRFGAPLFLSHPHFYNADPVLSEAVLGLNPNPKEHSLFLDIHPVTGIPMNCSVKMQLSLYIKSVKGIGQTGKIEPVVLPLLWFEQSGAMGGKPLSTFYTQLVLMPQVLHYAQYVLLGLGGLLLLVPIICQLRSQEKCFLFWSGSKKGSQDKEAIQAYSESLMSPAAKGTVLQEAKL
Excerpt: The following cell lines were used in this study: • ldlA[mSR-BI] is a Chinese hamster ovary (CHO) cell line that overexpresses murine SR-BI, isoform 1 (NP_058021) and was obtained from the Assay Provider (Krieger Laboratory). This cell line was used for the primary assay and several secondary assays. […] This cell line was obtained from the Assay Provider. Assays DiI-HDL Uptake Assay (Primary Assay AID Nos. 488896, 493194, 540354 588392, 588553, 588548, 588754, 588828, 588833)
ldlA[mSR-BI]cells were plated into 384-well plates at 30 μl per well and incubated overnight. As a measurable surrogate for cholesterol uptake, human HDL particles were treated with the lipophilic fluorescent dye DiI and exposed to ldlA[mSR-BI]cells in lipoprotein-free media (Ham's F12/0.5% fatty acid-free Bovine Serum Albumin (BSA)/25 mM HEPES pH 7.4 plus 10 μg protein/ml DiI-HDL). Cells took up the DiI via SR-BI over 3 hours in the presence of compound. After significant uptake of the DiI, the cells became fluorescent. The level of fluorescence correlates with the amount of DiI uptake and can be measured with a standard plate reader (here a PerkinElmer EnVision plate reader was used). The uptake of lipid (represented by DiI) was inhibited by the positive control compound BLT-1 or with an excess of HDL untreated with DiI. Primary HTS data were analyzed in Genedata Screener Assay Analyzer, and were normalized against DMSO and the positive control (1 μM BLT-1). For the HTS, the average of two replicates was used to rank order activity and to choose compounds for retests. For dose studies, percent (%) activity was determined for each concentration and the concentration response curves (CRCs) were generated with Genedata Condeseo.
To identify novel inhibitors, SR-BI-mediated lipid uptake was measured in an engineered cell line that minimized potential uptake by other mechanisms, including via the LDL receptor (1). ldlA[mSR-BI]cells overexpress murine isoform 1 and selectively take up HDL lipid at similar levels as “has been reported for cultured mouse adrenal cells, perfused organs, and liver, adrenal gland and ovary in vivo” (1). This primary cell-based assay was used in a pilot screen that identified BLTs 1 through 5 (12). The assay was slightly modified from the original protocol of Nieland et al. to increase throughput and to ease automation procedures.

[1] = tested on: Jc1 378-1 TagRFP reporter HCV virus; assay: In vitro inhibition of HCV in Huh-7.5 cells; assay type: cell-based, hepatitis C virus; details: for inhibition of HCV replication: Huh-7.5 cells, MOI=0.1, 3 dpi; for mean fluorescence intensity (MFI) of HCV positive cells: normalized to DMSO control
Procedure: The compound of formula (II) was also tested for the in vitro inhibition of HCV. Huh-7.5 cells were seeded in a 24-well plates (50,000 cells/well) and incubate over night. The medium was changed to compound/solvent containing medium 2 hours prior to infection (200 μL/well) with a reporter HCV virus called Jc1 378-1 TagRFP. A dilute virus stock was used to infect at a MOI of 0.1 (7,500 IU/well) in 10 μL medium. 10 μL of virus dilution was added to the wells containing compound/solvent (thereby dilution the compounds by only ˜5%). Infections were incubated for 4 hours before washing off the inoculum 1× with 500 μL medium. Fresh compound/solvent containing medium was added to the cells (500 μL/well), and further incubated for 48-72 hours. Cells were harvested at 48-72 hpi and viral replication was determined by fixing the cells and measuring replication by FACS (fluorescence activated cell sorting). Controls having antibodies that neutralize HCV by blocking E2 (2 μg/mL) and controls having antibodies that block a HCV receptor CD81 (2 μg/mL) were used.
A series of tests were conducted using the compound of Formula II ML278), other known inhibitors of SRB1 and controls with cells infected with hepatitis C virus (HCV). The cells (Huh-7.5 cells infected with Jc1 378-1 TagRFP (MOI=0.1) 3 dpi) were treated with the following SR-BI compounds and controls:
Three different infection protocols were followed: (1) no wash—virus inoculum was removed 4 hpi and fresh medium containing compounds added without washing cells; (2) 5× wash—virus inoculum was removed 4 hpi, cells were washed 5× with PBS and fresh medium containing compounds added; and (3) no wash Opt—infection were performed in serum-free OptiMem; virus inoculum was removed 4 hpi and fresh medium containing compounds added without washing cells. FIG. 107 provides a comparison of the three different infection set-ups. FIG. 108 provides a comparison of two independent experiments.

[2] = tested on: endocytosis of transferrin; assay: Transferrin endocytosis assay; assay type: cell-based
Excerpt: Transferrin Endocytosis Assay (SA 3: AID No. 602134) This assay measures the endocytosis of an independent ligand, transferrin, which is not taken up via SR-BI but by clathrin-mediated endocytosis. This assay provides a measure of the selectivity of the inhibitors. Alexa-594-labeled transferrin is taken into the cell via endocytosis and localization of labeled transferrin was quantitated in the various intracellular compartments. […] Inhibitors of interest should act selectively at SR-BI and should have no activity in this assay. Cells were pre-treated with compound for 3 hours and then treated with the Alexa-594 transferrin reagent for 30 minutes (Catalog No. T-13343; Invitrogen) in serum-free media. Plates of cells were then placed onto ice, washed with ice cold PBS, and then fixed with 4% paraformaldehyde. In addition, the nuclei were stained with 300 nM 4′,6-diamidino-2-phenylindole (DAPI) (Catalog No. 21490; Invitrogen). The cells were imaged with the Molecular Devices IXM microscope (FIG. 22). Translocation measurements were performed using MetaExpress software and normalized for cell number.

- IC50 (murine SR-BI; read-out: IC50, DiI-HDL uptake): 0.9 nM
Compound: COc1cc(OC)cc(C(=O)Nc2nc(-c3ccc4c(c3)CCN4C(=O)OC(C)(C)C)cs2)c1 [Boc carbamate, tert-Butyl 5-(2-(3,5-dimethoxybenzamido)thiazol-4-yl)indoline-1-carboxylate]

Compound: CC(=O)Nc1ccc(Cl)c(C(=O)Nc2ccc(N3CCN(C(=O)OC(C)(C)C)CC3)cc2)c1 [Compound R-154716]
- inhibition of HCV replication ([1]; listed as SRB1-2): inhibited viral replication; also recorded: able to inhibit HCV replication
- mean fluorescence intensity (MFI) of HCV positive cells [1]: increased mean fluorescence intensity (MFI) of HCV positive cells in a dose dependent manner

Compound: COc1c(NC(=O)C(=O)c2ccc(OCCN3CCOCC3)c3ccccc23)cc(C(C)(C)C)cc1NS(C)(=O)=O [ITX-5061]
- inhibition of HCV replication ([1]; listed as SRB1-9): inhibited viral replication; also recorded: able to inhibit HCV replication
- mean fluorescence intensity (MFI) of HCV positive cells [1]: this increase was not seen

- IC50 (murine SR-BI; range, read-out: range of IC50 for HDL-mediated lipid uptake): 0.93 to 6 nM
Compound: CCC(=O)N1CCc2cc(-c3csc(NC(=O)c4ccco4)n3)ccc21 [MLS001217863]
- endocytosis of transferrin [2]: not grossly perturbing cellular membrane trafficking pathways

Compound: COc1cc(OC)cc(C(=O)Nc2nc(-c3ccc4c(c3)CCN4)cs2)c1 [N-(4-(Indolin-5-yl)thiazol-2-yl)-3,5-dimethoxybenzamide, trifluoroacetic acid salt]
- loss of activity/potency relative to parent analog (murine SR-BI): approximately 3 fold
